How the values were obtained:
Format in all cases: in vivo
HIV [1] = tested on: HIV; design: Linear Regression Higher CO / Linear Regression Lower CO: unit not given here; details: for Linear Regression Higher CO / Linear Regression Lower CO: Definition 2, Overall (whole population); for VIROLOGIC RESPONSE Baseline FC for 80% REDUCTION of response (upper cutoff) / VIROLOGIC RESPONSE 20% REDUCTION (fold change, preliminary VirtualPhenotype Clinical Cutoff) / VIROLOGIC RESPONSE 80% REDUCTION (fold change, preliminary VirtualPhenotype Clinical Cutoff): preliminary linear regression analysis; for VIROLOGIC RESPONSE 20% REDUCTION (fold change, preliminary VirtualPhenotype Clinical Cutoff) / VIROLOGIC RESPONSE 80% REDUCTION (fold change, preliminary VirtualPhenotype Clinical Cutoff): virologic response at 8 weeks
From the text: Databases of studies for patients with tenofovir containing regimens and consisting of patient baseline demographic characteristics, clinical outcome results with viral load and resistance data (Fold change), were retrieved and remapped according to a common structure allowing a meta-analysis. The structure consisted of baseline sequence, viral load data set, viral load measurements and sampling dates (for example viral load within 3 months of starting new regimen and viral load assessment 8 and/or 24 weeks after beginning new regimen), CD4+ data set which contains CD4+ counts and sampling dates, resistance data set containing the fold changes to different antivirals and sampling dates; patient data set with patient information such as age, gender, race, treatment history; treatment data set with drug regimens, start and stop dates, doses, formulations, frequency of intake, regimen changes after resistance tests. The structure of such a clinical data base can be seen in FIG. 1a.
The viral load response data includes censored (<400 copies/ml) values. Parameters of the underlying uncensored distribution were estimated by maximum likelihood estimation in SAS (proc lifereg). The viral load response data are corrected for baseline viral load and cPSS.
(§1) The models applied were linear regression, logistic regression, and a classification tree. These models also took into account effects of the concomitant HIV drugs (PSS), baseline viral load (Baseline Log(V1)i) and, optionally, treatment history in order to avoid bias introduced by imbalances of important characteristics. From the models, a prediction of clinical outcome could be made at different levels of the baseline fold change resistance.
In the linear regression model, the proposed equation was the following: LogVL dropi=β0+β1*Baseline Log(V1)i+β2*PSSi+β3*(1/FC)i+ξi where i represented the patient, β0 the intercept, β1, β2 and β3 coefficients indicated the increase in log viral load drop per unit increase of respectively the baseline log VL, the number of sensitive drugs in the background regimen and the inverse of the baseline fold change. ξi was a random error term indicating the deviation of the patient from the value predicted by the model. Interactions between all the factors were evaluated and other baseline characteristics, i.e treatment history, were added if relevant.
When viral load results under the detection limits are obtained, biases could be introduced if the detection limit values are considered when calculating viral load drops and using those in the linear regression model. To avoid this, censoring needed to be taken into account and therefore the PROC LIFEREG facility in the SAS package was employed.
Clinical responses were predicted in the models developed in previous step 2. […] In order to determine the fold changes at which clinically relevant diminished clinical responses can be observed, three definitions of clinical cut-offs were considered:
(§2) The maximum effect was defined as the treatment effect at fold change 1, and the minimum effect was defined as the treatment effect at a very high fold change (i.e. when the curve reached a plateau). The effect range was then the difference between the maximum effect and the minimum effect.

HIV [2] = tested on: HIV; design: key to Modelled Lower Cutoff & Confidence Interval / Modelled Upper Cutoff & Confidence Interval: fold change (FC) matching VL drop at 20% and 80% loss of activity; details: for Modelled Lower Cutoff & Confidence Interval / Modelled Upper Cutoff & Confidence Interval: preferred embodiment of linear regression
From the text: In a preferred embodiment of the linear regression model, more factors are included in order to obtain a more refined prediction of viral load response. These factors include for example a sensitivity score per drug class in addition to the overall sensitivity score of the background treatment (cPSS), previous exposure to the drug (naïve (Yes/No), naïve to PIs, naïve to NRTI's, etc. . . . ). Furthermore, in the preferred embodiment, the fold change is transformed before inserting the figures into the model. The transformation to the fold change comprises a power-transformation ranging from FC^−3 to FC^1. In addition, a quadratic term in cPSS is preferably added.
The NRTI[naïve] value represents whether the patient is naïve to nucleoside RT inhibitors. If yes, value=1, if no, value=0. The PSS[NRTI} represents the phenotypic sensitivity score for NRTIs, i.e the number of active NRTIs in the background regimen for the patient.
Stage 3: Determine Fold change equivalent to VL drop at 20% and 80% loss of activity by inserting values for VL drop into the above equation and calculating FC. […]

HIV [3] = assay: Logistic regression model of probability of success/failure as a function of baseline fold change resistance (clinical cut-offs); details: Definition 2; for lower cutoff, logistic regression / upper cutoff, logistic regression: log baseline VL/background PSS of 5/0
From the text: In such a method, Prob of success is preferably calculated by performing a logistic regression analysis using data from a clinical response dataset, wherein Prob of success is modelled according to the following equation: […]
as §1, with “The clinical outcome results (drop in viral load and response rate) were modelled as a function of baseline fold change (FC) as determined by virtual phenotype (see WO01/79540 and WO02/33402; also http://www.vircolab.com). The models” for “The models”
In the logistic regression, the proposed equation was the following: […]
However, by binning the viral load into successes and failures, part of the information of the continuous variable viral load is lost. Estimates are also corrected for covariates as for linear regression.
as §2
The lower and higher cutoffs are defined as the fold change associated with an expected 20% and 80% decrease respectively of the reference activity of the drug within the regimen.

HIV [4] = details: for Test Data BCO Odds Ratio / Validation Data BCO Odds Ratio: biological cutoffs; for Test Data CCO Odds Ratio / Validation Data CCO Odds Ratio: clinical cutoffs
From the text: Further factors which may be taken into account when validating the model are the odds ratios determined using clinical cutoffs compared to those determined using biological cutoffs. These ratios represent the odds of being a responder in the group that is labeled resistant by the cutoffs divided by the odds of being a responder in the group that is labeled sensitive by the cutoffs. In this way it is possible to evaluate how well the cutoffs perform on a drug by drug basis. The further away that the odds ratio is from 1, the stronger the correlation between the resistance class and clinical outcome. The odds ratio as specified above yield numbers smaller than 1 as the odds of being a responder should be smaller in the higher resistance class. Put another way, the probability of response will decrease as the resistance increases. Additionally, if the odds ratio for the CCO is smaller than the odds ratio for the BCO, it can be concluded that the CCO is stronger correlated with clinical outcome and therefore gives a better prediction than the BCO.
(§3) A logistic regression model may be used to determine the odds ratio. The model used is the same as the logistic regression model described above except that the fold change in the model is replaced by the resistance class. The coefficient for the resistance class that is obtained from the model is the log (odds ratio). The advantage of using this model is that the odds ratio estimates can be adjusted for the baseline viral load and the cPSS score of the background regimen.
The columns headed CCO Odds Ratio and BCO Odds Ratio represent the odds of being a responder in the group that is labeled resistance by the cutoffs divided by the odds of being a responder in the group that is labeled sensitive by the cutoffs. For example, if there are four non-responders and one responder in the resistant group, and four responders and two non-responders in the sensitive group, the odds of being a responder in the resistant group is 1:4=0.25 and the odds of being a responder in the sensitive group is 4:2=2. […] The further away that the odds ratio is from 1, the stronger the correlation between the resistance class and clinical outcome.
The separation in groups (resistance/sensitive) can be done based on clinical cutoffs or biological cutoffs. This means that odds ratios based on clinical cutoffs (CCO) and odds ratios based on biological cutoffs (BCO) can be compared. If the odds ratio for the CCO is smaller than the odds ratio for the BCO, it can be concluded that the CCO gives a better prediction than the BCO.
as §3, with “In practice, a” for “A”, “is” for “may be”, “similar to” for “the same as the”, “earlier” for “above”, “regimen. […] In this case, a larger odds ratio indicates a stronger correlation with clinical outcome.” for “regimen.”

[5] = Subgroup 1: PSS = 2, baseline Log (VL) = 4
[6] = Subgroup 3: PSS = 2, baseline Log (VL) = 5
[7] = Definition 1, log baseline viral load of 5, no active drugs in addition
[8] = Log(BaselineVL)=4, cPSS=2, PSS[NRTI]=1, NRTI[naïve]=0
[9] = definition 2, Log(BaselineVL)=4, reference fold changes 0.9 and 3, cPSS=2, PSS[NRTI]=1, NRTI[naïve]=0

## Lopinavir/r [LPV/r]
HIV [1]
  Linear Regression Higher CO: 69
  Linear Regression Lower CO: 8
  VIROLOGIC RESPONSE 20% REDUCTION (fold change, preliminary VirtualPhenotype Clinical Cutoff): 6.9
  VIROLOGIC RESPONSE 80% REDUCTION (fold change, preliminary VirtualPhenotype Clinical Cutoff): 56
HIV [1]; definition 2
  VIROLOGIC RESPONSE Baseline FC for 80% REDUCTION of response (upper cutoff): 56
HIV [2]
  Modelled Lower Cutoff & Confidence Interval: 10.3
  Modelled Upper Cutoff & Confidence Interval: 61.6
HIV [3]; [5]
  Logistic Regression Higher CO: 64
  Logistic Regression Lower CO: 11
HIV [3]; [6]
  Logistic Regression Higher CO: 58
  Logistic Regression Lower CO: 9
HIV [3]
  lower cutoff, logistic regression: 10
  upper cutoff, logistic regression: 60
HIV [4]
  Test Data BCO Odds Ratio: 0.240
  Test Data CCO Odds Ratio: 0.074
  Validation Data BCO Odds Ratio: 0.277
  Validation Data CCO Odds Ratio: 0.002

## Cc1cn([C@H]2C=C[C@@H](CO)O2)c(=O)[nH]c1=O [D4T, stavudine]
HIV [1]; [7]
  fold change at predicted viral load drop of −0.2 logs: 4.0
  fold change at predicted viral load drop of −0.6 logs: 2.6
HIV [1]; Definition 1, log baseline viral load of 5, two active drugs in addition
  predicted viral load drop for any fold change: more than 0.6 log copies/mL
HIV [2]; [8]
  Fold change equivalent to VL drop at 20% loss of activity: 1.08
  Fold change equivalent to VL drop at 80% loss of activity: 2.18
  VL drop when drug has lost 20% of its activity: −2.76
  VL drop when drug has lost 80% of its activity: −2.21
HIV [2]; [9]
  modelled lower clinical cutoff (CCO): 1.1
  modelled upper clinical cutoff (CCO): 2.2
HIV [2]; lower reference fold change=0.9, Log(BaselineVL)=4, cPSS=2, PSS[NRTI]=1, NRTI[naïve]=0
  VL drop at the lower reference FC (drug is fully active): −2.94
HIV [2]; upper reference fold change=3, Log(BaselineVL)=4, cPSS=2, PSS[NRTI]=1, NRTI[naïve]=0
  VL drop at the upper reference FC (minimal activity of the drug): −2.03

## amprenavir/r [APV/r]
HIV [1]; definition 2, after 8 weeks
  clinical cutoff for 20% reduced response (lower clinical cutoff): 1.5
  clinical cutoff for 80% reduced response (upper clinical cutoff): 6.8
HIV [1]; definition 2
  VIROLOGIC RESPONSE Baseline FC for 80% REDUCTION of response (upper cutoff): 6.8
HIV [1]
  VIROLOGIC RESPONSE 20% REDUCTION (fold change, preliminary VirtualPhenotype Clinical Cutoff): 1.5
  VIROLOGIC RESPONSE 80% REDUCTION (fold change, preliminary VirtualPhenotype Clinical Cutoff): 6.8
HIV [2]
  Modelled Lower Cutoff & Confidence Interval: 0.9
  Modelled Upper Cutoff & Confidence Interval: 6.5
HIV [4]
  Test Data BCO Odds Ratio: 0.053
  Test Data CCO Odds Ratio: 0.005

## Indinavir/r [IDV/r]
HIV [1]; definition 2
  VIROLOGIC RESPONSE Baseline FC for 80% REDUCTION of response (upper cutoff): 25
HIV [1]
  VIROLOGIC RESPONSE 20% REDUCTION (fold change, preliminary VirtualPhenotype Clinical Cutoff): 3.5
  VIROLOGIC RESPONSE 80% REDUCTION (fold change, preliminary VirtualPhenotype Clinical Cutoff): 25
HIV [2]
  Modelled Lower Cutoff & Confidence Interval: 4.1
  Modelled Upper Cutoff & Confidence Interval: 21.2
HIV [4]
  Test Data BCO Odds Ratio: 0.122
  Test Data CCO Odds Ratio: 0.027
  Validation Data BCO Odds Ratio: 0.038
  Validation Data CCO Odds Ratio: 0.012

## Saquinavir/r [SQV/r]
HIV [1]
  Linear Regression Higher CO: 12.3
  Linear Regression Lower CO: 1.6
  VIROLOGIC RESPONSE 20% REDUCTION (fold change, preliminary VirtualPhenotype Clinical Cutoff): 1.6
  VIROLOGIC RESPONSE 80% REDUCTION (fold change, preliminary VirtualPhenotype Clinical Cutoff): 12
HIV [1]; definition 2
  VIROLOGIC RESPONSE Baseline FC for 80% REDUCTION of response (upper cutoff): 12
HIV [2]
  Modelled Lower Cutoff & Confidence Interval: 1.1
  Modelled Upper Cutoff & Confidence Interval: 12.0
HIV [3]; [5]
  Logistic Regression Higher CO: 13.2
  Logistic Regression Lower CO: 1.7
HIV [3]
  lower cutoff, logistic regression: 1.7
  upper cutoff, logistic regression: 12.9
HIV [4]
  Test Data BCO Odds Ratio: 0.249
  Test Data CCO Odds Ratio: 0.165
  Validation Data BCO Odds Ratio: 0.080
  Validation Data CCO Odds Ratio: 0.054

## CC(C)CN(C[C@@H](O)[C@H](Cc1ccccc1)NC(=O)O[C@H]1CCOC1)S(=O)(=O)c1ccc(N)cc1 [APV, amprenavir]
HIV [1]; definition 2, after 8 weeks
  clinical cutoff for 80% reduced response (upper clinical cutoff): 3.4

## Cc1ccnc2c1NC(=O)c1cccnc1N2C1CC1 [NVP, neviripine]
HIV [2]
  Modelled Lower Cutoff & Confidence Interval: 1.5
  Modelled Upper Cutoff & Confidence Interval: 3.2
HIV [4]
  Test Data BCO Odds Ratio: 0.290
  Test Data CCO Odds Ratio: 0.282
  Validation Data BCO Odds Ratio: 0.054
  Validation Data CCO Odds Ratio: 0.054

## CC(C)(C)NC(=O)[C@@H]1CN(Cc2cccnc2)CCN1C[C@@H](O)C[C@@H](Cc1ccccc1)C(=O)N[C@H]1c2ccccc2C[C@H]1O [IDV, indinavir]
HIV [1]; definition 2, after 8 weeks
  clinical cutoff for 80% reduced response (upper clinical cutoff): 3.4
